Where a name gives a salt, the structure may show the parent alone.
How the values were obtained:
AKT1 = AKT1 (Homo sapiens, UniProt P31749, S473D); assay: Determination of the IC50 for AKT1 (HTRF); format: biochemical; settings: AKT1 without PH domain, activated by PDK1
Experimental: Determination of the IC50 for AKT1
The inhibitory potential of the compounds is evaluated by HTRF, a time-resolved fluorescence technique based on non-radiative energy transfer (FRET). […] This phosphorylation allows the kinase activity of AKT1 to be activated.
Starting with a 10 mM solution of inhibitors, 3 μl are taken and placed in a 96-well polypropylene plate containing 27 μl of 100% DMSO. The various test compounds are diluted in cascade by taking 15 μl of compound, to which are added 30 μl of 100% DMSO.
The various reaction components are added in the following manner:
Next, 10 μl of the inhibitor solution are added. Finally, the reaction is initiated by adding 10 μl of a solution containing both 100 μM of ATP and 10 μM of biotinylated peptide. The sequence of this peptide is as follows: biot-[…] (reference Neosystem SP000560). The plate is then covered with a plastic film, agitated and finally incubated at RT for 30 minutes. […] After incubation overnight at 4° C., the plate is read using an Ultra evolution spectrophotometer from Tecan. […] All the tests are performed in duplicate and the mean of the two tests is calculated.
For each point, a delta F is calculated in the following manner:
(§1) R(Ratio)=counts665 nm/counts620 nm
ΔF % is calculated by the Tecan Ultra Evolution machine.

[1] = molecular target: T1, Human S6K1 (24-421) T412E protein (Homo sapiens, UniProt P23443, T412E); assay: Determination of the IC50 for S6K1 (HTRF substrate phosphorylation test); format: biochemical; settings: S6K1 activated by PDK1, ATP 30 μM
T1 construct: Human S6K1 (24-421) T412E protein; made in house; host or cells: Sf21 insect cells
Experimental: Determination of the IC50 for S6K1
The inhibitory potential of the compounds for S6K1 is evaluated in an enzymatic test of phosphorylation of substrate in HTRF (Homogenous Time-Resolved Fluorescence) format. Human S6K1 (24-421) T412E protein is expressed in sf21 cells and purified by chromatography on a nickel chelate column. It is activated by PDK1.
The test comprises two steps, both performed at RT. The phosphorylation reaction takes place during the first step and the revelation step is performed during the second. […] The final concentrations of compounds thus obtained during the incubation period range from 10 μM to 0.17 nM and the concentration of enzyme is 2 nM. After incubation for 20 minutes, the reaction is stopped and the revelation initiated by addition of 30 μl of a mixture of streptavidin XL 665 Xlent, ref. 611SAXLB Cis bio international, and a europium cryptate-coupled anti-phospho-GSK3 antibody, ref. 64CUSKAZ Cis bio international, dissolved in the revelation buffer (HEPES/NaOH 166.7 mM, EDTA 221.7 mM, KF 667.7 mM, BSA 0.167%, pH 7.0). The reaction takes place in a black half-well plate ref. 3694 Costar.
A mixture of the reaction medium after each addition of reagent is obtained by agitation for a few minutes at 700-1000 rpm on a Heidolph Titramax 100 machine. The reading is taken on a TECAN Ultra Evolution machine after at least one night and up to 3 nights at 4° C. The reading settings are as follows: excitation wavelength 320 nm, emission wavelengths 620 and 665 nm, lag time 150 μs, integration time 500 μs.
For each point, the ΔF % is calculated as follows:
as §1
The IC50 values are calculated by means of the XLfit4 205 equation.

Chain of AKT1 (P31749 118-480 S473D limits assumed): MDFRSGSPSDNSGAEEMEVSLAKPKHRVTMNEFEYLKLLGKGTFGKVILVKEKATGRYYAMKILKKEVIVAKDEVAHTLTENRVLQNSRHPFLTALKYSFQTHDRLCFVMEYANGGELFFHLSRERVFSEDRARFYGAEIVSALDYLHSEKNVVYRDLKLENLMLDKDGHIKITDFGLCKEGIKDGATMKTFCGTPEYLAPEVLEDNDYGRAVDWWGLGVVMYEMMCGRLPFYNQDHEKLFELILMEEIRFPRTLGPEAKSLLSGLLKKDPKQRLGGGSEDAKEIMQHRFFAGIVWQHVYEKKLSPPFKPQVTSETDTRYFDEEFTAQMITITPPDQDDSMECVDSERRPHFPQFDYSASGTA
T1 sequence (P23443 24-421 T412E): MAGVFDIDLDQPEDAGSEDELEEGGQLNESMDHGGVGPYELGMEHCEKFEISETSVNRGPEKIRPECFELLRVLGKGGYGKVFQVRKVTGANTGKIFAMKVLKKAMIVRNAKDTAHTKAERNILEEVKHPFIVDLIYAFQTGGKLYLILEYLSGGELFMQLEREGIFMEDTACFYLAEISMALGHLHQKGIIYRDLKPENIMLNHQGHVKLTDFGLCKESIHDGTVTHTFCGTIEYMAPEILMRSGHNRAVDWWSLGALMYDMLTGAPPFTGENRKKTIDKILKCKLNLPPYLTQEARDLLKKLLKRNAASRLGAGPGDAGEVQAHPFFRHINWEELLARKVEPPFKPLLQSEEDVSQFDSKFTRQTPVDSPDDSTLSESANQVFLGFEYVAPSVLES

Row | Structure (SMILES) | melting point [°C] | IC50 (AKT1) [nM] | IC50 [1] [nM]
1 | CN1CCCCC1C(NC(=O)Nc1cc(F)c2[nH]nc(NC(=O)c3ccccc3)c2c1)c1ccccc1 (as salt: fumaric acid salt) [Ex 19, N-[7-Fluoro-5-({[(1-methylpiperid-2-yl)(phenyl)methyl]carbamoyl}amino)-1H-indazol-3-yl]benzamide((S,2S),(R,2R))] | 164 |  | 
2 | CN1CCCCC1C(NC(=O)Nc1cc(F)c2[nH]nc(N)c2c1)c1ccccc1 (as salt: fumaric acid salt) [Ex 20, 1-(3-Amino-7-fluoro-1H-indazol-5-yl)-3-[(1-methylpiperid-2-yl)(phenyl)methyl]urea((S,2S),(R,2R))] | 221 to 222 |  | 
3 | CN1CCCCC1C(NC(=O)Nc1cc(F)c2[nH]ncc2c1)c1ccccc1 (as salt: fumaric acid salt) [Ex 21, 1-(7-Fluoro-1H-indazol-5-yl)-3-[(1-methylpiperid-2-yl)(phenyl)methyl]urea((S,2S),(R,2R))] | 224 to 227 |  | 
4 | CN1CCCCC1C(NC(=O)Nc1ccc2[nH]nc(C#Cc3ccccc3)c2c1)c1ccccc1 (as salt: fumaric acid salt) [Ex 23, 1-[(1-Methylpiperid-2-yl)(phenyl)methyl]-3-[3-(phenylethynyl)-1H-indazol-5-yl]urea((S,2S),(R,2R))] | 227 |  | 
5 | CN1CCCCC1C(NC(=O)Nc1ccc2[nH]nc(C#Cc3ccc(F)cc3)c2c1)c1ccccc1 (as salt: fumaric acid salt) [Ex 24, 1-{3-[(4-Fluorophenyl)ethynyl]-1H-indazol-5-yl}-3-[(1-methylpiperid-2-yl)(phenyl)methyl]urea((S,2S),(R,2R))] | 244 |  | 
6 | CN1CCCCC1C(NC(=O)Nc1ccc2[nH]nc(C#Cc3cccnc3)c2c1)c1ccccc1 (as salt: fumaric acid salt) [Ex 25, 1-[(1-Methylpiperid-2-yl)(phenyl)methyl]-3-[3-(pyrid-3-ylethynyl)-1H-indazol-5-yl]urea((S,2S),(R,2R))] | 230 |  | 
7 | O=C(Nc1ccc2[nH]nc(C#Cc3ccccc3)c2c1)N[C@@H](c1ccc(Cl)c(Cl)c1)[C@@H]1CCCCN1 (as salt: fumaric acid salt) [Ex 26, 1-{(S)-(3,4-Dichlorophenyl)[(2S)-piperid-2-yl]methyl}-3-[3-(phenylethynyl)-1H-indazol-5-yl]urea] | 160 |  | 
8 | CN1CCCCC1C(NC(=O)Nc1ccc2[nH]nc(CCc3ccccc3)c2c1)c1ccccc1 (as salt: fumaric acid salt) [Ex 27, 1-[(1-Methylpiperid-2-yl)(phenyl)methyl]-3-[3-(2-phenylethyl)-1H-indazol-5-yl]urea((S,2S),(R,2R))] | 205 |  | 
9 | CN1CCCCC1C(c1ccccc1)N(C)C(=O)Nc1ccc2[nH]ncc2c1 (as salt: fumaric acid salt) [Ex 32, 3-(1H-Indazol-5-yl)-1-methyl-1-[(1-methylpiperid-2-yl)phenylmethyl]urea((S,2S),(R,2R))] | 194 |  | 
10 | CN(C(=O)NC(c1ccccc1)C1CCCCN1C)c1ccc2[nH]ncc2c1 (as salt: fumaric acid salt) [Ex 33, 1-(1H-Indazol-5-yl)-1-methyl-3-[(1-methylpiperid-2-yl)(phenyl)methyl]urea((S,2S),(R,2R))] | 205 |  | 
11 | O=C(Nc1ccc2[nH]ncc2c1)N[C@@H](c1cc(F)cc(Cl)c1)[C@@H]1CCCCN1 (as salt: hydrochloride) [Ex 3, 1-{(S)-(3-Chloro-5-fluorophenyl)[(2S)-piperid-2-yl]methyl}-3-(1H-indazol-5-yl)urea] | 208 |  | 
12 | CN1CCCCC1C(NC(=O)Nc1ccc2[nH]ncc2c1)c1cc(F)cc(Cl)c1 (stereo not drawn) (as salt: hydrochloride) [Ex 11, 1-[(3-Chloro-5-fluorophenyl)(1-methylpiperid-2-yl)methyl]-3-(1H-indazol-5-yl)urea] | 192 |  | 
13 | Nc1n[nH]c2ccc(NC(=O)N[C@@H](c3ccc(Cl)c(Cl)c3)[C@@H]3CCCCN3)cc12 (as salt: hydrochloride) [Ex 29, 1-(3-Amino-1H-indazol-5-yl)-3-{(S)-(3,4-dichlorophenyl)[(2S)-piperid-2-yl]methyl}urea] | 214 |  | 
14 | O=C(Nc1ccc2[nH]ncc2c1)OC(c1cc(Cl)cc(Cl)c1)C1CCCCN1 (as salt: hydrochloride) [Ex 34, (3,5-Dichlorophenyl)[piperid-2-yl]methyl 1H-indazol-5-ylcarbamate((S,2S),(R,2R))] | 220 |  | 
15 | O=C(Nc1ccc2[nH]ncc2c1)O[C@@H](c1cc(F)cc(Cl)c1)[C@@H]1CCCCN1 (as salt: hydrochloride) [Ex 35, (S)-(3-Chloro-5-fluorophenyl)[(2S)-piperid-2-yl]methyl 1H-indazol-5-ylcarbamate] | 226 |  | 
16 | CN1CCCCC1C(OC(=O)Nc1ccc2[nH]ncc2c1)c1cc(F)cc(Cl)c1 (stereo not drawn) (as salt: hydrochloride) [Ex 36, (3-Chloro-5-fluorophenyl)(1-methylpiperid-2-yl)methyl 1H-indazol-5-ylcarbamate] | 172 |  | 
17 | O=C(Nc1ccc2[nH]ncc2c1)O[C@@H](c1ccc(Cl)c(Cl)c1)[C@@H]1CCCCN1 (as salt: hydrochloride) [Ex 38b, (S)-(3,4-Dichlorophenyl)[(2S)-piperid-2-yl]methyl 1H-indazol-5-ylcarbamate] | 194 |  | 
18 | O=C(Nc1ccc2[nH]ncc2c1)N[C@@H](c1ccccc1)[C@@H]1CCCCN1 [Ex 8, 1-{(S)-(Phenyl)[(2S)-piperid-2-yl]methyl}-3-(1H-indazol-5-yl)urea] | 195 | < 100 | 500 to 2000
19 | O=C(Nc1ccc2[nH]ncc2c1)N[C@H](c1ccccc1)[C@H]1CCCCN1 [Ex 9, 1-{(R)-(Phenyl)[(2R)-piperid-2-yl]methyl}-3-(1H-indazol-5-yl)urea] | 147 to 149 | 100 to 500 | 500 to 2000
20 | C=CCN1CCCC[C@H]1[C@@H](NC(=O)Nc1ccc2[nH]ncc2c1)c1ccccc1 [Ex 10, 1-{(S)-(Phenyl)[(2S)-1-allylpiperid-2-yl]methyl}-3-(1H-indazol-5-yl)urea] | 195 | 100 to 500 | 
21 | Nc1n[nH]c2ccc(NC(=O)N[C@@H](c3ccc(Cl)c(Cl)c3)[C@@H]3CCCCN3)cc12 [Ex 29, 1-(3-Amino-1H-indazol-5-yl)-3-{(S)-(3,4-dichlorophenyl)[(2S)-piperid-2-yl]methyl}urea] |  | < 100 | 500 to 2000
22 | O=C(Nc1ccc2[nH]ncc2c1)O[C@H](c1ccc(Cl)c(Cl)c1)[C@@H]1CCCCN1 [Ex 38c, (R)-(3,4-Dichlorophenyl)[(2S)-piperid-2-yl]methyl 1H-indazol-5-ylcarbamate] |  | 100 to 500 | 100 to 500
23 | O=C(Nc1ccc2[nH]ncc2c1)O[C@H](c1cc(F)cc(Cl)c1)[C@@H]1CCCCN1 [Ex 40, (R)-(3-Chloro-5-fluorophenyl)[(2S)-piperid-2-yl]methyl 1H-indazol-5-ylcarbamate] |  | 500 to 2000 | 500 to 2000
24 | O=C(Nc1ccc2[nH]ncc2c1)O[C@@H](c1cccc(C(=O)NC2CCCCC2)c1)[C@@H]1CCCCN1 [Ex 47, (S)-(3-Cyclohexylcarbamoylphenyl)-(S)-piperid-2-ylmethyl (1H-Indazol-5-yl)carbamate] |  | < 100 | 100 to 500
